Experiments:
[1] = system: PC-3; test: cell proliferation assay, PC-3; assay type: cell-based; details: Homo sapiens; PC-3, Prostate
Protocol: (§1) Cells were seeded in 96-well plates and maintained for 5 days in the presence of 0.5 to 20 μM of individual compound, and cell proliferation was measured by the sulforhodamine B (SRB) assay as described previously (see, for example, Palakurthi, S. S. et al. Cancer Research 2000, 60(11), 2919-2925). Briefly, at the end of a 5-day treatment, cells were fixed in 10% cold trichloroacetic acid. Cell number was estimated by measuring the remaining bound dye of sulforhodamine B after washing. The percentage of growth was calculated by using the equation: 100×[(T−T0)/(C−T0)], where T and C represent the absorbance in treated and control cultures at Day 5, and T0 at time zero, respectively. If T is less than T0, cell death has occurred and can be calculated from 100×[(T−T0)/T0].

[2] = system: T47D; test: cell proliferation assay, T47D; assay type: cell-based; details: Homo sapiens, Breast
Protocol: as §1

[3] = system: BAF-3; test: cell proliferation assay, BAF-3; assay type: cell-based; details: Mus musculus, BaF3; BAF-3, Leukemia
Protocol: as §1

[4] = system: CaSki; test: cell proliferation assay, CaSki; assay type: cell-based; details: Homo sapiens, Ca-Ski, Cervix
Protocol: as §1

[5] = system: Huh-7; test: cell proliferation assay, Huh-7; assay type: cell-based; details: Homo sapiens; Huh-7, Liver
Protocol: as §1

[6] = system: eIF2α phosphorylation (eIF2•GTP•Met-tRNAi ternary complex; HRI activation); test: surrogate dual luciferase eIF2α phosphorylation (ternary complex) assay; assay type: cell-based, human; details: Homo sapiens; surrogate eIF2α phosphorylation assay, Table 3; read-out: Emax (F/R)
How it was run: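 Cell-based dual luciferase reporter: firefly luciferase behind the ATF-4 5′UTR (uORFs) and renilla luciferase behind a uORF-free 5′UTR, read with a dual glow kit. Activity given as firefly/renilla ratio normalised to DMSO wells set at 1, with a rising ratio reflecting reduced ternary complex (e.g., HRI activation).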

[7] = system: RAMOS; test: cell proliferation assay, RAMOS; assay type: cell-based; details: Homo sapiens, Lymphoma
Protocol: as §1

[8] = system: HT-29; test: cell proliferation assay, HT-29; assay type: cell-based; details: Homo sapiens; HT-29, Colon
Protocol: as §1

IC50 [1]: 2900 nM | IC50 [2]: 1200 nM | IC50 [5]: 2100 nM | IC50 [7]: 800 nM | IC50 [8]: 2700 nM
Compound: O=C(Nc1cccc(C(F)(F)F)c1)NC1CCC(Oc2ccc(OC(F)(F)F)cc2)CC1 (centres unmarked) [Compound I-17, 1-(4-(4-(trifluoromethoxy)phenoxy)cyclohexyl)-3-(3-(trifluoromethyl)phenyl)urea]
IC50 [3]: 800 nM | IC50 [4]: 2800 nM | maximal fold induction [6]: 15.4

Reference: US20160318856A1, “Substituted Urea eIF2alpha Kinase Activators” (THE BRIGHAM AND WOMEN'S HOSPITAL, INC., priority 2013, published 2016)
